Values of other authors as cited in patent publication US6974588B1, “Transdermal patch for delivering volatile liquid drugs” (Elan Pharma International Limited, priority 1999, dated 2005).

Tested on: nicotine dependence
Conditions: oral administration, literature report

**Q.** For `CNC1(C)C2CCC(C2)C1(C)C` (stereo not shown) [oral mecamylamine, mecamylamine], which “ad hoc cigarette consumption” value is on record?
**A.** increased
